{"source": "patent EP1235833B1", "about": "(GLAXO GROUP LIMITED, priority 1999, dated 2001)", "experiment": "Acid stability: acid-mediated hydrolytic decomposition, simulated stomach conditions, HPLC", "format": "physicochemical", "details": "for Compound left (%): 0.3 mg/mL in dilute hydrochloric acid at pH 1, 25°C", "experimental": "Compounds were tested for their stability towards acid-mediated hydrolytic decomposition employing a test designed to simulate stomach conditions. Each compound was incubated at an initial concentration of 0.3 mg/mL in dilute hydrochloric acid at pH 1 for 24 hours at 25°C. HPLC was run immediately for t=0 and at intervals up to approximately 24 hours. The results for compounds of Example 2, part b, Example 9, and for comparative phosphoramidates of 2',3'-dideoxy-adenosine (Compound 1093) and 2',3'-didehydro-2',3'-dideoxy-adenosine (Compound 1001), described in W096/29336A, are given in the table below.", "data": [{"compound": "COC(=O)C(C)(C)NP(=O)(OC[C@@H]1C=C[C@H](n2cnc3c(NCC4CC4)nc(N)nc32)C1)Oc1ccccc1", "note": "(relative stereo) [Example 9]", "values": [{"measurement": "Compound left (%)", "setting": "Time 0 hr", "result": 100, "unit": "%"}, {"measurement": "Compound left (%)", "setting": "Time 13 hr", "result": 96, "unit": "%"}, {"measurement": "Compound left (%)", "setting": "Time 24 hr", "result": 94, "unit": "%"}, {"measurement": "Acid stability in words", "setting": "after 24 hours, dilute hydrochloric acid at pH 1, 25°C", "result": "remained intact"}]}]}
